# Test results taken from ChEMBL document CHEMBL1122390, “2-benzazepines. 5. Synthesis of pyrimido[5,4-d][2]benzazepines and their evaluation as anxiolytic agents” (J Med Chem, 1983).
# What was measured:
# Mus musculus [1] = assay: Effective dose required for anxiolytic activity in mice when administered perorally (Inclined screen test); assay type: functional; conditions: po
# Mus musculus [2] = assay: Effective dose required for anxiolytic activity in mice when administered perorally (Rotarod test); assay type: functional; conditions: po
# Mus musculus [3] = assay: Effective dose required for anxiolytic activity in mice when administered perorally (Antipentylene tetrazole test); assay type: functional; conditions: po
# [4] = target: GABA-A receptor; anion channel; assay: Binding affinity measured by [3H]diazepam binding assay in rat
# Felis catus [5] = assay: Minimum effective dose required for drug induced ataxia (observable symptomatology) in cat when administered perorally.; assay type: functional; conditions: po, read-out: MED
# Monkey [6] = assay: Highest dose required for depressant effect when administered perorally; assay type: functional, Cercopithecidae
# Rattus norvegicus [7] = assay: Minimum effective dose required for anticonflict effect in rat when administered perorally; assay type: functional; conditions: po, read-out: MED
# Mus musculus [8] = assay: (§1) Effective dose required for ethanol interaction in mouse when administered perorally; assay type: functional; conditions: po
# Rattus norvegicus [9] = assay: Lowest dose required for depressant effect (significant decrease in unpunished responding) in rat when administered perorally; assay type: functional
# Monkey [10] = assay: Minimum effective dose required for anticonflict effect in monkey when administered perorally; assay type: functional; conditions: Cercopithecidae, in Primates, po; read-out: MED
# Mus musculus [11] = assay: Effective dose required for anxiolytic activity in mice when administered perorally ( Rotarod test); assay type: functional; conditions: po
# Mus musculus [12] = assay: as §1; conditions: po
# Felis catus [13] = assay: Minimum effective dose required for drug induced ataxia (observable symptomatology) in cat when administered perorally; assay type: functional; conditions: po, read-out: MED
SMILES,ED50 (Mus musculus [1]) [mg/kg],ED50 (Mus musculus [2]) [mg/kg],ED50 (Mus musculus [3]) [mg/kg],IC50 [4] [nM],also measured
Nc1ncc2c(n1)-c1ccc(Cl)cc1C(c1ccccc1Cl)=NC2,> 400,1.4,0.07,2.6,–
CNC(=O)Cc1ncc2c(n1)-c1ccc(Cl)cc1C(c1ccccc1F)=NC2,> 400,4,2.3,7.6,–
CN1CCN(c2ncc3c(n2)-c2ccc(Cl)cc2C(c2ccccc2F)=NC3)CC1,> 400,16,1.2,7.1,–
Clc1ccc2c(c1)C(c1ccccc1Cl)=NCc1cncnc1-2,215,3.6,0.59,2.8,minimal effective dose (Felis catus [5]): 0.5 mg/kg; HED (Monkey [6]): 5 mg/kg; minimal effective dose (Rattus norvegicus [7]): 0.31 mg/kg; ED50 (Mus musculus [8]): 2.2 mg/kg; DUR (Rattus norvegicus [9]): 2.5 mg/kg; minimal effective dose (Monkey [10]): 0.04 mg/kg
CNc1ncc2c(n1)-c1ccc(Cl)cc1C(c1ccccc1F)=NC2,> 400,4,0.58,2.8,–
Fc1ccccc1C1=NCc2cncnc2-c2ccc(Cl)cc21,> 400,0.8,0.37,3.4,–
Cc1ncc2c(n1)-c1ccccc1C(c1ccccc1)=NC2,–,200,84,54,–
Nc1ncc2c(n1)-c1ccccc1C(c1ccccc1)=NC2,–,–,17,60,–
Cc1nc2c(c[n+]1[O-])C[N+]([O-])=C(c1ccccc1Cl)c1cc(Cl)ccc1-2,240,5.6,2.7,31,–
CC1=NCC2CNC(c3ccccc3Cl)c3cc(Cl)ccc3C2=N1 (stereo not drawn),200,109,34,140,–
Sc1ncc2c(n1)-c1ccc(Cl)cc1C(c1ccccc1Cl)=NC2,> 400,214,18,270,–
Nc1ncc2c(n1)-c1ccc(Cl)cc1C(c1ccccc1F)=[N+]([O-])C2,–,–,–,38,–
Cc1ncc2c(n1)-c1ccc(Cl)cc1C(c1ccccc1Cl)NC2 (stereo not drawn),> 400,18,2.3,30,–
Nc1ncc2c(n1)-c1ccc(Cl)cc1C(c1ccccc1)=NC2,> 400,19,4.9,17,–
Fc1ccccc1C1=NCc2cnc(Cl)nc2-c2ccc(Cl)cc21,> 400,24,4.7,5.3,–
Cc1ncc2c(n1)-c1ccc(Cl)cc1C(c1ccccc1F)=NC2,> 400,7.8,6.6,3.1,–
COc1ncc2c(n1)-c1ccc(Cl)cc1C(c1ccccc1F)=NC2,> 400,9,2.6,3.5,–

SMILES,ED50 (Mus musculus [1]) [mg/kg],ED50 (Mus musculus [2]) [mg/kg],ED50 (Mus musculus [3]) [mg/kg],IC50 [4] [nM],also measured
Cc1ncc2c(n1)-c1ccc(Cl)cc1C(c1ccccc1Cl)N(C)C2 (stereo not drawn),> 400,74,7.7,25,–
O=C(O)Cc1ncc2c(n1)-c1ccc(Cl)cc1C(c1ccccc1F)=NC2,> 400,–,12,9.6,ED50 (Mus musculus [11]): 30 mg/kg
Clc1ccc2c(c1)C(c1ccccc1Cl)NCc1cncnc1-2 (stereo not drawn),> 400,22,6.9,54,–
[O-][N+]1=C(c2ccccc2Cl)c2cc(Cl)ccc2-c2ncncc2C1,141,4.9,0.87,39,–
[O-][N+]1=C(c2ccccc2F)c2cc(Cl)ccc2-c2nc(S)ncc2C1,> 400,> 200,> 100,490,–
[O-][N+]1=C(c2ccccc2F)c2cc(Cl)ccc2-c2ncncc2C1,277,3.95,3.9,41,–
CSc1ncc2c(n1)-c1ccc(Cl)cc1C(c1ccccc1Cl)=NC2,> 400,33,13,18.5,–
CCOC(=O)Cc1ncc2c(n1)-c1ccc(Cl)cc1C(c1ccccc1F)=NC2,–,> 200,13,20,–
Nc1ncc2c(n1)-c1ccc(Cl)cc1C(c1ccccc1F)=NC2,> 400,5.1,1.1,2.8,–
Cc1ncc2c(n1)-c1ccc(Cl)cc1C(c1ccccc1)=NC2,–,–,9.3,17,–
CN1C(=O)CN=C(c2ccccc2)c2cc(Cl)ccc21 [DIAZEPAM],> 25,3.2,1.4,–,ED50 (Mus musculus [12]): 0.97 mg/kg; HED (Monkey [6]): 20 mg/kg; minimal effective dose (Rattus norvegicus [7]): 1.25 mg/kg; minimal effective dose (Felis catus [13]): 0.2 mg/kg; DUR (Rattus norvegicus [9]): 20 mg/kg; minimal effective dose (Monkey [10]): 0.31 mg/kg
CC(C)c1ncc2c(n1)-c1ccc(Cl)cc1C(c1ccccc1Cl)=NC2,> 400,21,3.8,25,–
Cc1ncc2c(n1)-c1ccc(Cl)cc1C(c1ccccc1Cl)=NC2,> 400,7.2,0.74,9.2,–
Cc1ncc2c(n1)-c1ccc(Cl)cc1C(c1ccccc1Cl)=[N+]([O-])C2,> 400,6.3,0.72,15,–
Oc1ncc2c(n1)-c1ccc(Cl)cc1C(c1ccccc1F)=NC2,> 400,29,6.3,9.6,–
CN(C)c1ncc2c(n1)-c1ccc(Cl)cc1C(c1ccccc1F)=NC2,> 400,2.2,1.1,8.2,–
CN(C)CCCNc1ncc2c(n1)-c1ccc(Cl)cc1C(c1ccccc1F)=NC2,187,16,1.6,2.3,–
